Source: patent publication US20100015050A1, “PEG AND TARGETING LIGANDS ON NANOPARTICLE SURFACE” (WAYNE STATE UNIVERSITY, priority 2006, published 2010)

Tests used:
[1] = test system: vascular smooth muscle cells; assay: MTS cytotoxicity of dexamethasone formulations; assay type: cell-based; conditions: nanoparticles 600 μg/mL or drug solution 25 μg/mL, single dose
Procedure: Nanoparticle formulations with different drug release rates were formulated by emulsion solvent evaporation technique. […] Data represented as mean±SD, n=3. The two formulations were investigated for cytotoxicity in vascular smooth muscle cells. Cells were plated in 96-well plates at a density of 5000 cells/well/0.1 mL. A nanoparticle suspension prepared in regular serum-containing growth medium (600 μg/mL, 0.1 mL) was added to each well. Drug solution in growth medium (25 μg/mL) was also added to some of the wells. Untreated cells were used as controls. Cytotoxicity was determined using a standard MTS assay. The medium was changed on day 2 and every other day thereafter, and no further dose of drug was added. Data as mean±SD, n=6. […] Data represented as mean±SEM, n=3. Cells were plated at 100,000 cells/well/2 ml in 6-well plates. Drug encapsulated in nanoparticles (600 μg of nanoparticles/ml, 2 ml) or in solution (25 μg/ml, 2 ml) was added to each well. Medium was changed on day 2 and every other day thereafter, and no further dose of the drug was added.

MCF-7 xenografts = assay: tumor growth and survival after single-dose paclitaxel treatment; assay type: in vivo; conditions: 400 μg paclitaxel/animal, nude mice
Source text: Effect of a single-dose paclitaxel treatment on tumor growth was investigated in nude mice bearing MCF-7 xenografts.

NCl/ADR-RES cells [2] = assay: MTS cytotoxicity in drug-resistant, P-gp overexpressing cells; assay type: cell-based; conditions: paclitaxel 100 nM in solution or in nanoparticles, no verapamil
Procedure: (§1) Drug sensitive (MCF-7) and drug-resistant (NCl/ADR-RES) cells were plated in 96-well plates at a density of 5000 cells/well/0.1 mL. Cells were then treated with paclitaxel (Pac) in solution (100 nM) or equivalent in nanoparticles (NP). […] Untreated cells and cells treated with empty nanoparticles were used as controls. Cytotoxicity was followed using a standard MTS assay (see Methods). […] Data as mean±SD, n=6 wells. * P<0.05.
NCl/ADR-RES cells were plated in 96-well plates at a density of 5000 cells/well/0.1 mL. Cells were then treated with paclitaxel (Pac, 100 nM) in nanoparticles (NP). […] Untreated cells were used as controls. Cytotoxicity was followed as a function of time using a standard MTS assay. The medium was changed on day 2 and every other day thereafter, and no further dose of drug was added.
Drug-resistant (NCl/ADR-RES) cells were plated in 96-well plates at a density of 5000 cells/well/0.1 mL. Cells were then treated with dual-agent nanoparticles releasing 0.3 ng/day/8 μg siRNA and 7 ng/day/8 μg paclitaxel. Cells treated with non-targeted (scrambled) siRNA and untreated cells were used as controls. Cytotoxicity was followed using a standard MTS assay. The medium was changed on day 2 and every other day thereafter, and no further dose of drug was added. Data as mean±SD, n=6 wells. * P<0.05 compared to controls. […]

MCF-7 cells = assay: MTS cytotoxicity of paclitaxel treatments in drug-sensitive cells; assay type: cell-based; conditions: paclitaxel 100 nM in solution or equivalent in nanoparticles; compared to untreated cells
Procedure: as §1
The inventors initially investigated the efficacy of paclitaxel encapsulated in nanoparticles in drug-sensitive MCF-7 cells.

NCl/ADR-RES cells [3] = assay: nanoparticle uptake/retention and paclitaxel accumulation in cells (HPLC); assay type: cell-based; conditions: inhibition of P-gp by verapamil
Procedure: NCl/ADR-RES cells were plated in 24-well plates at a density of 50,000 cells/well/1 mL. […] The medium was changed on day 2 and every other day thereafter, and no further dose of drug was added. Cells were harvested at different time intervals, and lysed using cell culture lysis reagent (Promega).
In order to verify that differences in drug accumulation are not due to differences in nanoparticle uptake/retention in cells, the inventors labeled nanoparticles with 6-coumarin, and followed the cell uptake and retention of nanoparticles and paclitaxel in NCl/ADR-RES cells.

C[C@@H]1C[C@H]2[C@@H]3CCC4=CC(=O)C=C[C@]4(C)[C@@]3(F)[C@@H](O)C[C@]2(C)[C@@]1(O)C(=O)CO [dexamethasone]
cytotoxicity / inhibition of cell proliferation [1]: transient cytotoxicity | duration of cytotoxicity [1]: up to 5 days

CC(=O)O[C@H]1C(=O)[C@@]2(C)[C@H]([C@H](OC(=O)c3ccccc3)[C@]3(O)C[C@H](OC(=O)[C@H](O)[C@@H](NC(=O)c4ccccc4)c4ccccc4)C(C)=C1C3(C)C)[C@]1(OC(C)=O)CO[C@@H]1C[C@@H]2O [paclitaxel]
effect on tumor growth (MCF-7 xenografts): only marginally effective | effect on the viability of cells (NCl/ADR-RES cells [2]): no significant effect on the viability of cells | inhibition of cell proliferation (MCF-7 cells): marginal but significant (P<0.05) inhibition of cell proliferation

COc1ccc(CCN(C)CCCC(C#N)(c2ccc(OC)c(OC)c2)C(C)C)cc1OC (stereo not drawn) [verapamil]
effect on uptake or retention of nanoparticles (NCl/ADR-RES cells [3]): did not significantly increase the uptake or retention of nanoparticles
